This note sets out measurements from patent US20260092071A1, “COMPOUNDS AND COMPOSITIONS AS SMARCA2/4 DEGRADERS AND USES THEREOF” (REGENTS OF THE UNIVERSITY OF MICHIGAN, priority 2022, published 2026).

The target in one assay is SMARCA4 (Homo sapiens, UniProt P51532). In words: HiBiT assay for protein degradation, Hela SMARCA4-HiBiT cells (A series). Particulars: Hela SMARCA4-HiBiT cells, 24 hours treatment; for DC50: read-out: SMARC A4 Hela HiBit DC50. The class given is cell-based. More on the design: fuse HiBiT to the carboxy terminus of SMARCA2 (Promega CS302365) or SMARCA4 (Promega CS3023225); host or cells: HeLa (CRISPR/Cas9 HiBiT knock-in). On the procedure: Hela cells were genetically modified via CRISPR/Cas9 to fuse HiBiT to the carboxy terminus of SMARCA2 (Promega CS302365) or SMARCA4 (Promega CS3023225). Cells were cultured in DMEM containing 10% FBS and 1% (Vol:Vol) penicillin-streptomycin. […] At the end of experiment, levels of SMARCA2 or SMARCA4 expression were assessed with Nano-Glo® HiBiT Lytic Detection Assay (Promega N3050). IC50 was obtained using the GraphPad Prism data analysis software.
Sequence of SMARCA4 (P51532 whole entry): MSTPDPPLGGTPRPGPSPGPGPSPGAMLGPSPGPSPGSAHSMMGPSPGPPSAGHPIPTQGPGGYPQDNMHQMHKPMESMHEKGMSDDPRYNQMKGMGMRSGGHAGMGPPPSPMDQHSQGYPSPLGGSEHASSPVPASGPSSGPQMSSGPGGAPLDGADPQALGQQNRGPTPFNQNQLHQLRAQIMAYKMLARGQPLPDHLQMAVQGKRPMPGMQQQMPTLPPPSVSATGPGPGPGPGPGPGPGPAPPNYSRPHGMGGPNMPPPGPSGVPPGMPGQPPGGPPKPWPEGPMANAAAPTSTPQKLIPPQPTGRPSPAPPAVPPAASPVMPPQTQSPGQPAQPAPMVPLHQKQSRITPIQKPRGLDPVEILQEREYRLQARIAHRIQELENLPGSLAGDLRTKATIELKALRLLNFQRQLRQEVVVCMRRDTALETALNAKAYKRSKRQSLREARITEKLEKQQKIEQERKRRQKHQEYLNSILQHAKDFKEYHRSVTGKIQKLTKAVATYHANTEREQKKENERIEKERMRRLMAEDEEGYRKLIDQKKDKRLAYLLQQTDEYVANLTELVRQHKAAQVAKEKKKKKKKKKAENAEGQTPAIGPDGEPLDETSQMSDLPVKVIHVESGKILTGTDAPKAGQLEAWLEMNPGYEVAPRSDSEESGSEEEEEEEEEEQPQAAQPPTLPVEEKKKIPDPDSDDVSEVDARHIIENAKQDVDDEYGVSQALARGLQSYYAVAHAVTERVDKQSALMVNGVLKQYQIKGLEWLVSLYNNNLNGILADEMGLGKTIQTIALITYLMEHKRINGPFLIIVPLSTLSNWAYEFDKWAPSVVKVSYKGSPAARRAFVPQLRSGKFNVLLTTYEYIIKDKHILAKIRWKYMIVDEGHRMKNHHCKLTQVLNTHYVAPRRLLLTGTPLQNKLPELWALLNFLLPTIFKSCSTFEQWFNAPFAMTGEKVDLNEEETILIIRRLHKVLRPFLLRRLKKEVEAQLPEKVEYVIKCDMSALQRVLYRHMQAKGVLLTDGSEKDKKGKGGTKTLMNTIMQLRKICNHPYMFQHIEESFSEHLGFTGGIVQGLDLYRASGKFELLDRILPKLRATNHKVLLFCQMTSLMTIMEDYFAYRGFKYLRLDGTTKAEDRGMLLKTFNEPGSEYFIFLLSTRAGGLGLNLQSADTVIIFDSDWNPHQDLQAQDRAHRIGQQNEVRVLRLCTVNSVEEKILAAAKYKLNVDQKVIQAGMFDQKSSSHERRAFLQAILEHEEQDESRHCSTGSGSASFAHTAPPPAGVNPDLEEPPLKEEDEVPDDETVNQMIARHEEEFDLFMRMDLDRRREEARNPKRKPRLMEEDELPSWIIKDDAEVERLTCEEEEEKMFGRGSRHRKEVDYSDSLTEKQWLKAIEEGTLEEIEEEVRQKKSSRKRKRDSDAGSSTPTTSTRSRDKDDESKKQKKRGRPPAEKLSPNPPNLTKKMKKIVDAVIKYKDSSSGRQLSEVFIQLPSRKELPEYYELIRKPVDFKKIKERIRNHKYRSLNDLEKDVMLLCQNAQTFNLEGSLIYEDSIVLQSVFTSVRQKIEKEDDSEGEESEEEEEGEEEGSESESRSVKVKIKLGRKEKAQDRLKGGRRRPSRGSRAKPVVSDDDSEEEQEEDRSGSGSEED
On the technique in general: With HiBiT, luminescence reflects the tagged protein that the partner subunit can reach.

In another assay the target is SMARCA2 (Homo sapiens, UniProt P51531). In words: HiBiT assay for protein degradation, Hela SMARCA2-HiBiT cells (A series).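 For SMARC A2 Hela HiBit Dmax (%): 24 h compound treatment.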 Set-up: Hela cells were genetically modified via CRISPR/Cas9 to fuse HiBiT to the carboxy terminus of SMARCA2; host or cells: HeLa (CRISPR/Cas9 HiBiT knock-in). The class given is cell-based. Particulars: Hela SMARCA2-HiBiT cells, 24 hours treatment; for DC50: read-out: SMARC A2 Hela HiBit DC50; for Dmax: read-out: SMARC A2 Hela HiBit Dmax (%). Summed up:
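SMARCA2 degradation was measured in HeLa cells whose endogenous SMARCA2 carries a carboxy-terminal HiBiT tag introduced by CRISPR/Cas9 (Promega CS302365). Cells were maintained in DMEM with FBS and penicillin-streptomycin. SMARCA2 levels were read at the end of the experiment by Nano-Glo® HiBiT lytic luminescence (Promega N3050) and analyzed in GraphPad Prism.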

[1] abbreviates: read-out: SMARC A4 Hela HiBit Dmax.
Setting [2] is: read-out: SMARC A4 Hela HiBit Dmax(%).

Where two headings read alike, the source gives them in different places.

Sequence of SMARCA2 (P51531 whole entry): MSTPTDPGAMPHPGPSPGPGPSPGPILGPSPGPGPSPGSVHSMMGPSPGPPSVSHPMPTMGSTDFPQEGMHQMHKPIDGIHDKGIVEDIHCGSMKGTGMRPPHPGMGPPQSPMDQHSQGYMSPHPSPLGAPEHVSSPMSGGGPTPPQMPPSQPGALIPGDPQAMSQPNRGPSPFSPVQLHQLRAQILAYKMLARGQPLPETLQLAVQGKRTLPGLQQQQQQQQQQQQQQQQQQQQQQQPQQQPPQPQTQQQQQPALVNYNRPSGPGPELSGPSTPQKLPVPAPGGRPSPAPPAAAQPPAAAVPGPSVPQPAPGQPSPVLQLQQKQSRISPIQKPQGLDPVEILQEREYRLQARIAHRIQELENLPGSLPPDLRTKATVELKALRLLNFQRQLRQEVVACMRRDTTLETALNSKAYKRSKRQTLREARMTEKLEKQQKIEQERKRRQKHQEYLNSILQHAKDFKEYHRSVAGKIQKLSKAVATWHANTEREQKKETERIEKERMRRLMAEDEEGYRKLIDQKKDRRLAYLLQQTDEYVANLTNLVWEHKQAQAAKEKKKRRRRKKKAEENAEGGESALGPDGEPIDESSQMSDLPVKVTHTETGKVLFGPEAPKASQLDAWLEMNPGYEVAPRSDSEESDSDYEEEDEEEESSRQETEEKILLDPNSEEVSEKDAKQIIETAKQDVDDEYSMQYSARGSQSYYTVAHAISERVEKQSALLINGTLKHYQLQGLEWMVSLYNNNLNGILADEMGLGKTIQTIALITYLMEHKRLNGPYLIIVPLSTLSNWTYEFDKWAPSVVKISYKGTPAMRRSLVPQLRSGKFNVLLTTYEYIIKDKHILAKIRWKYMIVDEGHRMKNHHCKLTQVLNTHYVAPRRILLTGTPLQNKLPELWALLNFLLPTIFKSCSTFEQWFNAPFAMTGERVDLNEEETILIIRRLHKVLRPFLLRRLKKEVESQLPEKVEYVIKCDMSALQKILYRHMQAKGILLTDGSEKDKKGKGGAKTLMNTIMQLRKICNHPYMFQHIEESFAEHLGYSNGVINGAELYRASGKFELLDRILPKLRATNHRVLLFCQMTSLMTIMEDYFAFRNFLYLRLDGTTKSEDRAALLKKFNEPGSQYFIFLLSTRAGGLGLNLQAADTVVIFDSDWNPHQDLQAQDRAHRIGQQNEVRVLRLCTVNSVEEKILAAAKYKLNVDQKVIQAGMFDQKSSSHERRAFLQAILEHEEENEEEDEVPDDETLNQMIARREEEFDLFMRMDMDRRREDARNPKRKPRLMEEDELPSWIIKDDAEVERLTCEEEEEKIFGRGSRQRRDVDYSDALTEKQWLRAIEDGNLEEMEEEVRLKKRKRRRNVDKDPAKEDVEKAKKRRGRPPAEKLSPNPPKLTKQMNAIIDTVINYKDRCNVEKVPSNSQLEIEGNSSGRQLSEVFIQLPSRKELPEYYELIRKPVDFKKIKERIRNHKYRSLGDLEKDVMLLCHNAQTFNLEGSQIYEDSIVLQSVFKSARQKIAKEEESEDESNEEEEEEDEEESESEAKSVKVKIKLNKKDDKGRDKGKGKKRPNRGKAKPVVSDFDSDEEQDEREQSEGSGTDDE

The Dmax is the largest share of the target that was removed. As usually defined, the DC50 is the concentration giving 50% degradation. Regarding `Cc1ncsc1-c1ccc([C@H](C)NC(=O)[C@@H]2C[C@@H](O)CN2C(=O)[C@H](C2CCOCC2)n2cc([C@H]3CC[C@H](CN4CCC(c5ccc6c(c5)-n5c(nc(=O)c7c(Br)cccc75)C65CCCCC5)CC4)CC3)nn2)cc1` [Compound A121, (2S,4R)-1-((S)-2-(4-((1r,4S)-4-((4-(4′-bromo-5′-oxo-5′H-spiro[cyclohexane-1,7′-indolo[1,2-a]quinazolin]-10′-yl)piperidin-1-yl)methyl)cyclohexyl)-1H-1,2,3-triazol-1-yl)-2-(tetrahydro-2H-pyran-4-yl)acetyl)-4-hydroxy-N—((S)-1-(4-(4-methylthiazol-5-yl)phenyl)ethyl)pyrrolidine-2-carboxamide], the “SMARC A4 Hela HiBit DC50(nM)” value at SMARCA4 is given as “No fit”. Besides, the Dmax was 70 to 90% at SMARCA4 (setting [1]) and greater than 90% on SMARCA2. Also, at SMARCA2, the DC50 is less than 10 nM.

As for `Cc1ncsc1-c1ccc([C@H](CCCCCN2CCC(c3ccc4c(n3)-n3c(nc(=O)c5c(Br)cccc53)C43CCCCC3)CC2)NC(=O)[C@H]2C[C@H](O)CN2C(=O)[C@@H](n2cc(C3CC3)nn2)C(C)(C)C)cc1` [Compound A37, (2R,4S)—N—((S)-6-(4-(4′-bromo-5′-oxo-5′H-spiro[cyclohexane-1,7′-pyrido[3′,2′: 4,5]pyrrolo[1,2-a]quinazolin]-10′-yl)piperidin-1-yl)-1-(4-(4-methylthiazol-5-yl)phenyl)hexyl)-1-((S)-2-(4-cyclopropyl-1H-1,2,3-triazol-1-yl)-3,3-dimethylbutanoyl)-4-hydroxypyrrolidine-2-carboxamide], the DC50 at SMARCA4 and at SMARCA2 was less than 100 nM in each case. The Dmax on SMARCA4 (setting [2]) and on SMARCA2 was greater than 90% in each case.

Consider `Cc1ncsc1-c1ccc([C@H](CN2CCOCC2)NC(=O)[C@@H]2C[C@@H](O)CN2C(=O)[C@H](C(C)C)n2cc([C@H]3CC[C@H](CN4CCC(c5ccc6c(c5)-n5c(nc(=O)c7c(Cl)cccc75)C65CCCCC5)CC4)CC3)nn2)cc1` [Compound A103, (2S,4R)-1-((S)-2-(4-((1r,4S)-4-((4-(4′-chloro-5′-oxo-5′H-spiro[cyclohexane-1,7′-indolo[1,2-a]quinazolin]-10′-yl)piperidin-1-yl)methyl)cyclohexyl)-1H-1,2,3-triazol-1-yl)-3-methylbutanoyl)-4-hydroxy-N-((R)-1-(4-(4-methylthiazol-5-yl)phenyl)-2-morpholinoethyl)pyrrolidine-2-carboxamide], for which the DC50 on SMARCA4 and at SMARCA2 was less than 10 nM in each case. Further, the Dmax on SMARCA4 (setting [1]) is 50 to 69%; on SMARCA2, greater than 90%.

Consider `Cc1ncsc1-c1ccc([C@H](CO)NC(=O)[C@@H]2C[C@@H](O)CN2C(=O)[C@H](C2CCCCC2)n2cc(-c3ccc(CN4CCC(c5ccc6c(c5)-n5c(nc(=O)c7c(Br)cccc75)C65CCCCC5)CC4)cc3)nn2)cc1` [Compound A129], for which the half-maximal degradation concentration (DC50) on SMARCA4 was greater than 1000 nM; on SMARCA2, 100 to 1000 nM. Further, the greatest degradation seen (Dmax) was less than 50% at SMARCA4 (setting [1]) and 50 to 69% at SMARCA2.

As to `Cc1ncsc1-c1ccc([C@H](CN2CCC(F)(F)CC2)NC(=O)[C@@H]2C[C@@H](O)CN2C(=O)[C@@H](n2cc([C@H]3CC[C@H](CN4CCC(c5ccc6c(c5)-n5c(nc(=O)c7c(Cl)cccc75)C6(C)C)CC4)CC3)nn2)C(C)(C)C)cc1` [Compound A94, (2S,4R)-1-((S)-2-(4-((1r,4S)-4-((4-(4-chloro-7,7-dimethyl-5-oxo-5,7-dihydroindolo[1,2-a]quinazolin-10-yl)piperidin-1-yl)methyl)cyclohexyl)-1H-1,2,3-triazol-1-yl)-3,3-dimethylbutanoyl)-N—((R)-2-(4,4-difluoropiperidin-1-yl)-1-(4-(4-methylthiazol-5-yl)phenyl)ethyl)-4-hydroxypyrrolidine-2-carboxamide], the half-maximal degradation concentration (DC50) at SMARCA4 is greater than 1000 nM; at SMARCA2, less than 10 nM. Also, the maximal degradation (Dmax) on SMARCA4 (setting [1]) was less than 50%; at SMARCA2, greater than 90%.

For the compound `Cc1ncsc1-c1ccc([C@H](C)NC(=O)[C@@H]2C[C@@H](O)CN2C(=O)[C@@H](NC(=O)[C@H]2CC[C@H](CN3CC(N4CCC(c5ccc6c(c5)C5(CCCCC5)c5nc(=O)c7c(Cl)cccc7n5-6)CC4)C3)CC2)C(C)(C)C)cc1` [Compound A12, (2S,4R)-1-((S)-2-((1r,4S)-4-((3-(4-(4′-chloro-5′-oxo-5′H-spiro[cyclohexane-1,7′-indolo[1,2-a]quinazolin]-9′-yl)piperidin-1-yl)azetidin-1-yl)methyl)cyclohexane-1-carboxamido)-3,3-dimethylbutanoyl)-4-hydroxy-N—((S)-1-(4-(4-methylthiazol-5-yl)phenyl)ethyl)pyrrolidine-2-carboxamide], the DC50 at SMARCA4 fell in the range of 501 to 1000 nM; at SMARCA2 it was 100 to 500 nM. Besides, the figures for the Dmax on SMARCA4 (setting [2]) and at SMARCA2 were 50 to 69% and 70 to 90%, respectively.

Regarding `Cc1ncsc1-c1ccc([C@H](C)NC(=O)[C@@H]2C[C@@H](O)CN2C(=O)[C@H](C2CCN(C(=O)CCCCN3CCC(c4ccc5c(c4)-n4c(nc(=O)c6c(Cl)cccc64)C54CCCCC4)CC3)CC2)n2cc(C3CC3)nn2)cc1` [Compound A107, (2S,4R)-1-((S)-2-(1-(5-(4-(4′-chloro-5′-oxo-5′H-spiro[cyclohexane-1,7′-indolo[1,2-a]quinazolin]-10′-yl)piperidin-1-yl)pentanoyl)piperidin-4-yl)-2-(4-cyclopropyl-1H-1,2,3-triazol-1-yl)acetyl)-4-hydroxy-N—((S)-1-(4-(4-methylthiazol-5-yl)phenyl)ethyl)pyrrolidine-2-carboxamide], the DC50 was greater than 1000 nM on SMARCA4 and 100 to 1000 nM at SMARCA2. For the same compound, the Dmax on SMARCA4 (setting [1]) was less than 50%; on SMARCA2, 70 to 90%.

Consider `Cc1ncsc1-c1ccc([C@H](C)NC(=O)[C@@H]2C[C@@H](O)CN2C(=O)[C@H](C2CCN(C(=O)[C@H]3CC[C@H](CN4CCC(c5ccc6c(c5)-n5c(nc(=O)c7c(Br)cccc75)C65CCCCC5)CC4)CC3)CC2)n2cc(C3CC3)nn2)cc1` [Compound A132, (2S,4R)-1-((S)-2-(1-((1r,4S)-4-((4-(4′-bromo-5′-oxo-5′H-spiro[cyclohexane-1,7′-indolo[1,2-a]quinazolin]-10′-yl)piperidin-1-yl)methyl)cyclohexane-1-carbonyl)piperidin-4-yl)-2-(4-cyclopropyl-1H-1,2,3-triazol-1-yl)acetyl)-4-hydroxy-N—((S)-1-(4-(4-methylthiazol-5-yl)phenyl)ethyl)pyrrolidine-2-carboxamide], for which the DC50 was greater than 1000 nM at SMARCA4 and less than 10 nM at SMARCA2. In addition, the values for the Dmax at SMARCA4 (setting [1]) and at SMARCA2 were less than 50% and greater than 90%, respectively.

`Cc1ncsc1-c1ccc([C@H](CC(=O)N2CCC3(CCC(N4CCC(c5ccc6c(c5)-n5c(nc(=O)c7c(Br)cccc75)C65CCCCC5)CC4)CC3)CC2)NC(=O)[C@@H]2C[C@@H](O)CN2C(=O)[C@@H](n2cc(C3CC3)nn2)C(C)(C)C)cc1` [Compound A144, (2S,4R)—N—((S)-3-(9-(4-(4′-bromo-5′-oxo-5′H-spiro[cyclohexane-1,7′-indolo[1,2-a]quinazolin]-10′-yl)piperidin-1-yl)-3-azaspiro[5.5]undecan-3-yl)-1-(4-(4-methylthiazol-5-yl)phenyl)-3-oxopropyl)-1-((S)-2-(4-cyclopropyl-1H-1,2,3-triazol-1-yl)-3,3-dimethylbutanoyl)-4-hydroxypyrrolidine-2-carboxamide]: the DC50 at SMARCA4 is 10 to 100 nM; at SMARCA2 it was less than 10 nM. Also, the Dmax on SMARCA4 (setting [1]) was 70 to 90%; at SMARCA2, greater than 90%.

With `Cc1ncsc1-c1ccc([C@H](CN2CCC(O)CC2)NC(=O)[C@@H]2C[C@@H](O)CN2C(=O)[C@@H](n2cc([C@H]3CC[C@H](CN4CCC(c5ccc6c(c5)-n5c(nc(=O)c7c(Cl)cccc75)C65CCCCC5)CC4)CC3)nn2)C(C)(C)C)cc1` [Compound A73, (2S,4R)-1-((S)-2-(4-((1r,4S)-4-((4-(4′-chloro-5′-oxo-5′H-spiro[cyclohexane-1,7′-indolo[1,2-a]quinazolin]-10′-yl)piperidin-1-yl)methyl)cyclohexyl)-1H-1,2,3-triazol-1-yl)-3,3-dimethylbutanoyl)-4-hydroxy-N—((R)-2-(4-hydroxypiperidin-1-yl)-1-(4-(4-methylthiazol-5-yl)phenyl)ethyl)pyrrolidine-2-carboxamide], the results for the DC50 on SMARCA4 and on SMARCA2 were greater than 1000 nM and less than 100 nM, respectively. The values for the Dmax on SMARCA4 (setting [2]) and at SMARCA2 were 50 to 69% and greater than 90%, respectively.
